Data reported in patent publication US20240336654A1, “ANTIMICROBIAL PEPTIDOMIMETICS” (SPEXIS AG, priority 2021, published 2024).
Where a SMILES comes first, the peptide text is derived from it. Bridges are numbered along the chain shown (N, C = ends). [ ]: non-standard residue; d: D form. The star is where a group is joined. Val(Nα-amidino) = CC(C)[C@H](NC(=N)N)C(=O)*; dDab(iPr) = CC(C)NCC[C@@H](N)C(=O)O; Dab(iPr) = CC(C)NCC[C@H](N)C(=O)O; Hyp = O=C(O)[C@@H]1C[C@@H](O)CN1; Cit = NC(=O)NCCC[C@H](N)C(=O)O; Pen = CC(C)(S)[C@H](N)C(=O)O; dDab = NCC[C@@H](N)C(=O)O; Dab = NCC[C@H](N)C(=O)O

Experiments:
Assay type in all cases: cell-based
[1] = test system: Escherichia coli ATCC 25922; details: ATCC 25922
Procedure, shortened: (§1)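 MICs were determined by CLSI broth microdilution in cation-adjusted Mueller-Hinton II broth with about 5×10^5 CFU/mL inoculum. Peptides were tested in two-fold serial dilutions with 0.002% polysorbate 80 final. MIC in μg/mL is the lowest concentration with no visible growth after 18-20 h at 35 °C.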

[2] = test system: Escherichia coli MCR-1 Af 45; details: MCR-1 Af 45
Procedure, shortened: as §1

[3] = test system: Klebsiella pneumoniae SSI3010; details: SSI3010
Procedure, shortened: as §1

[4] = test system: human red blood cells (hRBC); details: red cells of human, 1 h, 200 μg/mL
Procedure, shortened: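 Percent hemolysis derived from OD540 of supernatants relative to full lysis by 2.5% Triton X-100 (PBS baseline). Washed fresh human erythrocytes (20% v/v) were exposed to 200 μg/mL peptide for 1 h at 37 °C with shaking.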

SMILES | Escherichia coli ATCC 25922 MIC [1] [µg/mL] | Escherichia coli MCR-1 Af45 MIC [2] [µg/mL] | Klebsiella pneumoniae SSI3010 MIC [3] [µg/mL] | Hemolysis at 0.2 g/L [4] [%]
CC[C@H](C)[C@H](NC(=O)[C@@H]1C[C@@H](O)CN1C(=O)[C@@H](NC(=N)N)C(C)C)C(=O)N[C@H]1CCC(=O)NCC[C@@H](C(=O)N[C@@H](Cc2ccc(O)cc2)C(=O)O)NC(=O)[C@H](CCN)NC(=O)[C@H](CCN)NC(=O)[C@H](CCCCN)NC(=O)[C@@H](CCN)NC(=O)[C@H]([C@@H](C)O)NC(=O)[C@H](CCN)NC(=O)[C@H](CCCNC(=N)N)NC(=O)[C@H](CC(N)=O)NC(=O)[C@H]([C@@H](C)O)NC(=O)[C@H](Cc2ccc(O)cc2)NC1=O [Example 88, Gua-Val-Hyp-Ile-Glu-Tyr-Thr-Asn-Arg-Dab-Thr-^DDab-Lys-Dab-Dab-Dab-Tyr] ({Val(Nα-amidino)}-[Hyp]IEYTNR[Dab]T[dDab]K[Dab][Dab][Dab]Y-OH; lactam 3-14) | 0.125 | 0.0625 | 0.125 | <1
CC[C@H](C)[C@H](NC(=O)[C@@H]1C[C@@H](O)CN1C(=O)[C@@H](NC(=N)N)C(C)C)C(=O)N[C@H]1CCC(=O)NCC[C@@H](C(=O)N[C@@H](Cc2ccc(O)cc2)C(=O)O)NC(=O)[C@H](CCN)NC(=O)[C@H](CCN)NC(=O)[C@H](CCCCN)NC(=O)[C@@H](CCN)NC(=O)[C@H](CO)NC(=O)[C@H](CCN)NC(=O)[C@H](CCCNC(=N)N)NC(=O)[C@H](CC(N)=O)NC(=O)[C@H]([C@@H](C)O)NC(=O)[C@H](Cc2ccc(O)cc2)NC1=O [Example 89, Gua-Val-Hyp-Ile-Glu-Tyr-Thr-Asn-Arg-Dab-Ser-^DDab-Lys-Dab-Dab-Dab-Tyr] ({Val(Nα-amidino)}-[Hyp]IEYTNR[Dab]S[dDab]K[Dab][Dab][Dab]Y-OH; lactam 3-14) | 0.125 | 0.125 | 0.125 | <1
CC[C@H](C)[C@H](NC(=O)[C@@H]1C[C@@H](O)CN1C(=O)[C@@H](NC(=N)N)C(C)C)C(=O)N[C@@H]1C(=O)N[C@@H](Cc2ccc(O)cc2)C(=O)N[C@@H](CO)C(=O)N[C@@H](CC(N)=O)C(=O)N[C@@H](CCCNC(=N)N)C(=O)N[C@@H](CCN)C(=O)N[C@@H]([C@@H](C)O)C(=O)N[C@H](CCN)C(=O)N[C@@H]([C@@H](C)O)C(=O)N[C@@H](CCN)C(=O)N[C@@H](CCN)C(=O)N[C@H](C(=O)N[C@@H](Cc2ccc(O)cc2)C(=O)O)CSSC1(C)C [Example 90, Gua-Val-Hyp-Ile-Pen-Tyr-Ser-Asn-Arg-Dab-Thr-^DDab-Thr-Dab-Dab-Cys-Tyr] ({Val(Nα-amidino)}-[Hyp]I[Pen]YSNR[Dab]T[dDab]T[Dab][Dab]CY-OH; disulfide 3-14) | 0.25 | 0.125 | 0.25 | <1
CC[C@H](C)[C@H](NC(=O)[C@@H]1C[C@@H](O)CN1C(=O)[C@@H](NC(=N)N)C(C)C)C(=O)N[C@@H]1C(=O)N[C@@H](Cc2ccc(O)cc2)C(=O)N[C@@H]([C@@H](C)O)C(=O)N[C@@H](CC(N)=O)C(=O)N[C@@H](CCCNC(=N)N)C(=O)N[C@@H](CCCNC(N)=O)C(=O)N[C@@H]([C@@H](C)O)C(=O)N[C@H](CCN)C(=O)N[C@@H](CCCCN)C(=O)N[C@@H](CCN)C(=O)N[C@@H](CCN)C(=O)N[C@H](C(=O)N[C@@H](Cc2ccc(O)cc2)C(=O)O)CSSC1(C)C [Example 91, Gua-Val-Hyp-Ile-Pen-Tyr-Thr-Asn-Arg-Cit-Thr-^DDab-Lys-Dab-Dab-Cys-Y] ({Val(Nα-amidino)}-[Hyp]I[Pen]YTNR[Cit]T[dDab]K[Dab][Dab]CY-OH; disulfide 3-14) | 0.125 | 0.125 | 0.25 | <1
CC[C@H](C)[C@H](NC(=O)[C@@H]1C[C@@H](O)CN1C(=O)[C@@H](NC(=N)N)C(C)C)C(=O)N[C@@H]1C(=O)N[C@@H](Cc2ccc(O)cc2)C(=O)N[C@@H]([C@@H](C)O)C(=O)N[C@@H](CC(N)=O)C(=O)N[C@@H](CCCNC(=N)N)C(=O)N[C@@H](CCNC(C)C)C(=O)N[C@@H]([C@@H](C)O)C(=O)N[C@H](CCN)C(=O)N[C@@H](CCCCN)C(=O)N[C@@H](CCN)C(=O)N[C@@H](CCN)C(=O)N[C@H](C(=O)N[C@@H](Cc2ccc(O)cc2)C(=O)O)CSSC1(C)C [Example 92, Gua-Val-Hyp-Ile-Pen-Tyr-Thr-Asn-Arg-Dab(iPr)-Thr-^DDab-Lys-Dab-Dab-Cys-Tyr] ({Val(Nα-amidino)}-[Hyp]I[Pen]YTNR[Dab(iPr)]T[dDab]K[Dab][Dab]CY-OH; disulfide 3-14) | 0.0625 | 0.0625 | 0.25 | <1
CC[C@H](C)[C@H](NC(=O)[C@@H]1C[C@@H](O)CN1C(=O)[C@@H](NC(=N)N)C(C)C)C(=O)N[C@@H]1C(=O)N[C@@H](Cc2ccc(O)cc2)C(=O)N[C@@H]([C@@H](C)O)C(=O)N[C@@H](CC(N)=O)C(=O)N[C@@H](CCCNC(=N)N)C(=O)N[C@@H](CCNC(C)C)C(=O)N[C@@H]([C@@H](C)O)C(=O)N[C@H](CCN)C(=O)N[C@@H](CO)C(=O)N[C@@H](CCN)C(=O)N[C@@H](CCN)C(=O)N[C@H](C(=O)N[C@@H](Cc2ccc(O)cc2)C(=O)O)CSSC1(C)C [Example 93, Gua-Val-Hyp-Ile-Pen-Tyr-Thr-Asn-Arg-Dab(iPr)-Thr-^DDab-Ser-Dab-Dab-Cys-Tyr] ({Val(Nα-amidino)}-[Hyp]I[Pen]YTNR[Dab(iPr)]T[dDab]S[Dab][Dab]CY-OH; disulfide 3-14) | 0.25 | 0.25 | 0.5 | <1
CC[C@H](C)[C@H](NC(=O)[C@@H]1C[C@@H](O)CN1C(=O)[C@@H](NC(=N)N)C(C)C)C(=O)N[C@@H]1C(=O)N[C@@H](Cc2ccc(O)cc2)C(=O)N[C@@H](CO)C(=O)N[C@@H](CC(N)=O)C(=O)N[C@@H](CCCNC(=N)N)C(=O)N[C@@H](CCN)C(=O)N[C@@H](CC(N)=O)C(=O)N[C@H](CCN)C(=O)N[C@@H](CCCCN)C(=O)N[C@@H](CCN)C(=O)N[C@@H](CCN)C(=O)N[C@H](C(=O)N[C@@H](Cc2ccc(O)cc2)C(=O)O)CSSC1(C)C [Example 94, Gua-Val-Hyp-Ile-Pen-Tyr-Ser-Asn-Arg-Dab-Asn-^DDab-Lys-Dab-Dab-Cys-Tyr] ({Val(Nα-amidino)}-[Hyp]I[Pen]YSNR[Dab]N[dDab]K[Dab][Dab]CY-OH; disulfide 3-14) | 0.25 | 0.125 | 0.25 | <1
CC[C@H](C)[C@H](NC(=O)[C@@H]1C[C@@H](O)CN1C(=O)[C@@H](NC(=N)N)C(C)C)C(=O)N[C@@H]1C(=O)N[C@@H](Cc2ccc(O)cc2)C(=O)N[C@@H]([C@@H](C)O)C(=O)N[C@@H](CC(N)=O)C(=O)N[C@@H](CCCNC(=N)N)C(=O)N[C@@H](CCN)C(=O)N[C@@H]([C@@H](C)O)C(=O)N[C@H](CCNC(C)C)C(=O)N[C@@H](CCCCN)C(=O)N[C@@H](CCN)C(=O)N[C@@H](CCN)C(=O)N[C@H](C(=O)N[C@@H](Cc2ccc(O)cc2)C(=O)O)CSSC1(C)C [Example 95, Gua-Val-Hyp-Ile-Pen-Tyr-Thr-Asn-Arg-Dab-Thr-^DDab(iPr)-Lys-Dab-Dab-Cys-Tyr] ({Val(Nα-amidino)}-[Hyp]I[Pen]YTNR[Dab]T[dDab(iPr)]K[Dab][Dab]CY-OH; disulfide 3-14) | 0.125 | 0.125 | 0.25 | <1
CC[C@H](C)[C@H](NC(=O)[C@@H]1C[C@@H](O)CN1C(=O)[C@@H](NC(=N)N)C(C)C)C(=O)N[C@@H]1C(=O)N[C@@H](Cc2ccc(O)cc2)C(=O)N[C@@H]([C@@H](C)O)C(=O)N[C@@H](CC(N)=O)C(=O)N[C@@H](CCCNC(=N)N)C(=O)N[C@@H](CCN)C(=O)N[C@@H]([C@@H](C)O)C(=O)N[C@H](CCNC(C)C)C(=O)N[C@@H](CO)C(=O)N[C@@H](CCN)C(=O)N[C@@H](CCN)C(=O)N[C@H](C(=O)N[C@@H](Cc2ccc(O)cc2)C(=O)O)CSSC1(C)C [Example 96, Gua-Val-Hyp-Ile-Pen-Tyr-Thr-Asn-Arg-Dab-Thr-^DDab(iPr)-Ser-Dab-Dab-Cys-Tyr] ({Val(Nα-amidino)}-[Hyp]I[Pen]YTNR[Dab]T[dDab(iPr)]S[Dab][Dab]CY-OH; disulfide 3-14) | 0.125 | 0.125 | 0.25 | <1
